Data from patent US11903945B2, “Methods of treating antipsychotic-induced weight gain with miricorilant” (Corcept Therapeutics Incorporated, priority 2019, dated 2024).
Where “and” joins values, the source holds several entries; their conditions need not be identical. Identical values can stand only once. Entries after “also recorded” stand apart in the source; their conditions may differ. Like-named read-outs stand apart in the source and are kept apart here.

How the values were obtained:
[1] = patients; Allison et al., Am J. Psychiatry 1999; cited from earlier work
[2] = system: tyrosine aminotransferase (TAT) in HepG2 cells; conditions: HepG2 human liver hepatocellular carcinoma cell line; cited from earlier work
[3] = assay type: in vivo; conditions: female rats; for Study day from which body weight reduction became statistically significant: treatment started Day 35
Procedure: On day 35, the rodents were randomized to 4 different interventions and remained on study until day 57. The four intervention groups were: OLZ+vehicle daily by oral gavage; OLZ+2 mg/kg/day miricorilant once daily; OLZ+1 mg/kg miricorilant twice daily; and OLZ+10 mg/kg/day miricorilant once daily. A fifth group, a vehicle-only group (n=12), was included as a control for the entirety of the 57 days.
Starting at week 6, either miricorilant (MIRI, 3 dosing regimens) or vehicle 2 was administered orally. […] The vehicle-only group was included as a control for the 8-week duration of the study. Efficacy was assessed based on body weight, food consumption, mortality, and clinical observations.
The articles were stored refrigerated between dosing.
Body weights were measured and recorded three times weekly during the acclimation period, every other day beginning on Day −1, and prior to termination on Day 57. Food consumption was measured and recorded daily beginning on Day −14. Body weights and food consumption were measured within 2 hours of the initial time on Day −1. Any changes in bodyweight greater than 15 grams (g) and changes in food consumption greater than 5 g were verified. Food jars were weighed twice for precision during food jar changes.

[4] = Procedure: The dose level tested in our Phase 1b trial was 600 mg/day.
A 2-week, single-center, double-blind, randomized, placebo-controlled study was conducted in healthy male subjects age 18-55 years with BMI between 18-25 kg/m^2 and a stable body weight (defined as the Day 1 pre-dose body weight to be within ±2.0% of screening body weight). […] Food was freely available to all subjects during the study. The difference in mean change in absolute body weight after administration of OLZ+PBO compared to OLZ+MIRI was evaluated using a repeated measures model with imputation applied to missing values.
(HOMA2-IR values were calculated from fasted glucose and insulin levels using the HOMA (HOMA2 Model) Calculator® application programming interface for SAS (Oxford University 2013, available at the website www.dtu.ox.ac.uk/homacalculator)).

[5] = target: T1, progesterone receptor (Homo sapiens, UniProt P06401); conditions: cited from earlier work
T1 sequence (P06401 1-933): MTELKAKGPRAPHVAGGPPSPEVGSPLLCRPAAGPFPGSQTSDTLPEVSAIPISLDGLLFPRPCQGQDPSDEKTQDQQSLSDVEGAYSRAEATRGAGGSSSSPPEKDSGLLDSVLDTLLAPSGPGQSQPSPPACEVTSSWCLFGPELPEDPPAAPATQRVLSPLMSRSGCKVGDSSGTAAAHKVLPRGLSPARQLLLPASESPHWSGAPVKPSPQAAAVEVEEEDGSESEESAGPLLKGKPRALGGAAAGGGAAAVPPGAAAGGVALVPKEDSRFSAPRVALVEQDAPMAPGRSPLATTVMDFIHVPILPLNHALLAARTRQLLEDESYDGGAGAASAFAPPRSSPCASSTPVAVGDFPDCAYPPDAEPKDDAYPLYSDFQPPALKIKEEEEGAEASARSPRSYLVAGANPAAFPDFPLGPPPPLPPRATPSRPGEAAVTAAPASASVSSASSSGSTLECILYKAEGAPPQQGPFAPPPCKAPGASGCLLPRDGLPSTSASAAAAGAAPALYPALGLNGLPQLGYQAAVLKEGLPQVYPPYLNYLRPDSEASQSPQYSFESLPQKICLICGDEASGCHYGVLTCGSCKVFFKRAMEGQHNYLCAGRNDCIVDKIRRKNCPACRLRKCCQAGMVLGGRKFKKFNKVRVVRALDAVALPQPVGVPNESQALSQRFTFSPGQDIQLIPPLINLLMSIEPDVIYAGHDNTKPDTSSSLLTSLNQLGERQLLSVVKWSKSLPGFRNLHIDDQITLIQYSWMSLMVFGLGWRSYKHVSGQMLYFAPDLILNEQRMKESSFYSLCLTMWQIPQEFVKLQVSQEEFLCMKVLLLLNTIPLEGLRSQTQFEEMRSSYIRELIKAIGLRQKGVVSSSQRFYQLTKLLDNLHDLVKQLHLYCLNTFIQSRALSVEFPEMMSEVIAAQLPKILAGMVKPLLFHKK

[6] = Hunt et al., Bioorg Med Chem Lett. 2012; cited from earlier work
[7] = Group 3: OLZ + miricorilant 1 mg/kg/dose BID
[8] = Group 4: OLZ + miricorilant 2 mg/kg/dose QD
[9] = Group 5: OLZ + miricorilant 10 mg/kg/dose QD
[10] = first week of miricorilant treatment with OLZ, P<0.01
[11] = (1 − (A/B)) × 100, MIRI 600 mg/day + OLZ vs placebo + OLZ, healthy male subjects
[12] = healthy male subjects, day not given, listed as miricorilant = olanzapine+miricorilant, listed as olanzapine = olanzapine+placebo
[13] = healthy male subjects, listed as miricorilant = MIRI 600 mg/day + OLZ 10 mg/day, listed as olanzapine = placebo + OLZ 10 mg/day
[14] = healthy male subjects, listed as miricorilant = MIRI 600 mg/day + OLZ, listed as olanzapine = placebo + OLZ 10 mg/day, unit given in Table 1, not in Table 2
[15] = healthy male subjects, listed as miricorilant = olanzapine+miricorilant, listed as olanzapine = olanzapine+placebo
[16] = healthy male subjects, listed as miricorilant = olanzapine+miricorilant, listed as olanzapine = olanzapine+placebo, from Table 2 with Table 1 baselines

CN1CCN(C2=Nc3cc(Cl)ccc3Nc3ccccc32)CC1 [clozapine]
Mean body weight increase over a period of ten weeks [1]: 4.45 kg

CC#C[C@]1(O)CC[C@H]2[C@@H]3CCC4=CC(=O)CCC4=C3[C@@H](c3ccc(N(C)C)cc3)C[C@@]21C [mifepristone]
Effect on activity of tyrosine aminotransferase (TAT) in HepG2 cells [2]: decreases

O=c1[nH]c(=O)c(Cc2cccc(C(F)(F)F)c2)c([C@H]2CC[C@H](c3ccccc3)CC2)[nH]1 [miricorilant, (E)-6-(4-Phenylcyclohexyl)-5-(3-trifluoromethylbenzyl)-1H-pyrimidine-2,4-dione]
Study day from which body weight reduction became statistically significant ([3]; Group 3: 1 mg/kg/dose BID): 36
Body weight reduction at Day 57 vs olanzapine control Group 2 ([…] g) [3, 7]: 13%
Least Squares (LS) mean body weight at Day 57 [3, 7]: 268 g
Group mean body weight at Day 57 ([3]; Group 3: OLZ + miricorilant 1 mg/kg/dose BID oral, Days 35-57): 269 g
Study day from which body weight reduction became statistically significant ([3]; Group 4: 2 mg/kg/dose QD): 38
Body weight reduction at Day 57 vs olanzapine control Group 2 ([…] g) [3, 8]: 12%
Least Squares (LS) mean body weight at Day 57 [3, 8]: 272 g
Loss compared with basal body weight (vehicle-only control) at the end of the study [3, 8]: no significant loss; also recorded: no reduction
Group mean body weight at Day 57 ([3]; Group 4: OLZ + miricorilant 2 mg/kg/dose QD oral, Days 35-57): 272 g
Study day from which body weight reduction became statistically significant ([3]; Group 5: 10 mg/kg/dose QD): 36
Body weight reduction at Day 57 vs olanzapine control Group 2 ([…] g) [3, 9]: 17%
Least Squares (LS) mean body weight at Day 57 [3, 9]: 259 g
Group mean body weight at Day 57 ([3]; Group 5: OLZ + miricorilant 10 mg/kg/dose QD oral, Days 35-57): 258 g
Food consumption by the end of the study ([3]; all three miricorilant dose regimens with OLZ): returned to vehicle-only levels
Decrease in weight compared to the OLZ+vehicle group ([3]; days 35-57, all three miricorilant regimens with OLZ, p<0.05): 12-17%
Food consumption lower compared to olanzapine-only animals [3, 10]: 16%-23%
Food consumption lower compared to vehicle-only controls [3, 10]: 13%-20%
Mortality ([3]; miricorilant 1 mg/kg BID, 2 or 10 mg/kg QD with OLZ, Days 35-57): no mortalities
Effect on olanzapine-induced body weight gains and food consumption increases ([3]; oral, all three dose regimens, within first week of treatment (Week 6), maintained): completely abrogated
% reduction in OLZ-induced increase: HOMA2-IR, Day 8 [4, 11]: 38%
% reduction in OLZ-induced increase: HOMA2-IR, Day 15 [4, 11]: 39%
% reduction in OLZ-induced increase: body weight, Day 8 [4, 11]: 25%
% reduction in OLZ-induced increase: body weight, Day 15 [4, 11]: 22%
% reduction in OLZ-induced increase: insulin, Day 8 [4, 11]: 38%
% reduction in OLZ-induced increase: insulin, Day 15 [4, 11]: 39%
% reduction in OLZ-induced increase: triglycerides, Day 8 [4, 11]: 49%
% reduction in OLZ-induced increase: triglycerides, Day 15 [4, 11]: 45%
Difference in weight gain between treatment groups on day 15 ([4]; OLZ+MIRI vs OLZ+PBO, MMRM, P=0.017, 95% CI [−1.94, −0.19], healthy male subjects): -1.07 kg
Difference in weight gain between treatment groups on day 8 ([4]; OLZ+MIRI vs OLZ+PBO, MMRM, P=0.044, 95% CI [−1.77, −0.02], healthy male subjects): -0.9 kg
Difference in triglyceride increase on day 8 ([4]; OLZ+MIRI vs OLZ+PBO, P<0.001, healthy male subjects): -0.53 mmol/L
Difference in HOMA2-IR on day 15 ([4]; OLZ+MIRI vs OLZ+PBO, P=0.007, healthy male subjects): −0.47
Difference in HOMA2-IR on day 8 ([4]; OLZ+MIRI vs OLZ+PBO, P=0.012, healthy male subjects): −0.44
Difference in plasma insulin increase on day 8 ([4]; OLZ+MIRI vs OLZ+PBO, P=0.013, healthy male subjects): −3.49 mIU/L
Difference in triglyceride increase on day 15 ([4]; OLZ+MIRI vs OLZ+PBO, P=0.057, healthy male subjects): -0.28 mmol/L
HOMA2-IR level relative to baseline [4, 12]: less than 2 fold
Insulin resistance (HOMA2-IR) increase from baseline, percent [4, 12]: about 90%
Body weight increase from baseline on Day 8 [4, 13]: 2.6 kg and 2.59 kg
Body weight increase from baseline on Day 15 [4, 13]: 3.9 kg and 3.91 kg
HOMA2-IR increase from baseline on Day 8 [4, 13]: 0.71
HOMA2-IR increase from baseline on Day 15 [4, 13]: 0.74
Insulin increase from baseline on Day 8 [4, 13]: 5.65 mIU/L
Insulin increase from baseline on Day 15 [4, 13]: 5.91 mIU/L
Triglycerides increase from baseline on Day 8 [4, 14]: 0.56 mmol/L
Triglycerides increase from baseline on Day 15 [4, 14]: 0.34 mmol/L
Insulin increase from baseline, percent, day 8 [4, 15]: about 92%
Insulin increase from baseline, percent, day 15 [4, 15]: 97%
Triglycerides increase from baseline, percent, day 8 [4, 15]: about 60%
Triglycerides increase from baseline, percent, day 15 [4, 15]: 37%
Body weight increase from baseline, percent of baseline, day 8 [4, 16]: about 3.6%
Body weight increase from baseline, percent of baseline, day 15 [4, 16]: 5.4%
ALT increase from baseline, percent, day 7 ([4]; human, in vivo): 152%
ALT increase from baseline, percent, day 12 ([4]; human, in vivo): 528%
AST increase from baseline, percent, day 7 ([4]; human, in vivo): 71%
AST increase from baseline, percent, day 12 ([4]; human, in vivo): 192%
Difference in ALT levels between treatment arms on day 12 ([4]; human, in vivo): −49.99 IU/L
Difference in AST levels between groups on day 12 ([4]; human, in vivo): −32.24 IU/L
Tolerability of the dose ([4]; human, in vivo): very well tolerated
Difference in plasma insulin increase on day 15 ([4]; printed as between PBO and OLZ, P=0.007, healthy male subjects): 3.74 mIU/L
Affinity for the progesterone receptor [5]: without affinity
Effect on olanzapine-induced weight gain in rats [6]: prevent olanzapine-induced weight gain
